Data on 67 molecules can be found in US8916565B2, “Pyrrolopyrazine-spirocyclic piperidine amides as modulators of ion channels” (priority 2011, dated 2014).

The target of this assay is human NaV subtype, like NaV 1.7 (Homo sapiens, UniProt Q15858). Put plainly: E-VIPR optical membrane potential assay with electrical stimulation. Type of assay: cell-based. The settings on record: active against one or more sodium channels; Table 3 does not name the assay or NaV subtype; read-out: Binned Activity Data (IC50).
Sequence of human NaV subtype, like NaV 1.7 (Q15858 whole entry): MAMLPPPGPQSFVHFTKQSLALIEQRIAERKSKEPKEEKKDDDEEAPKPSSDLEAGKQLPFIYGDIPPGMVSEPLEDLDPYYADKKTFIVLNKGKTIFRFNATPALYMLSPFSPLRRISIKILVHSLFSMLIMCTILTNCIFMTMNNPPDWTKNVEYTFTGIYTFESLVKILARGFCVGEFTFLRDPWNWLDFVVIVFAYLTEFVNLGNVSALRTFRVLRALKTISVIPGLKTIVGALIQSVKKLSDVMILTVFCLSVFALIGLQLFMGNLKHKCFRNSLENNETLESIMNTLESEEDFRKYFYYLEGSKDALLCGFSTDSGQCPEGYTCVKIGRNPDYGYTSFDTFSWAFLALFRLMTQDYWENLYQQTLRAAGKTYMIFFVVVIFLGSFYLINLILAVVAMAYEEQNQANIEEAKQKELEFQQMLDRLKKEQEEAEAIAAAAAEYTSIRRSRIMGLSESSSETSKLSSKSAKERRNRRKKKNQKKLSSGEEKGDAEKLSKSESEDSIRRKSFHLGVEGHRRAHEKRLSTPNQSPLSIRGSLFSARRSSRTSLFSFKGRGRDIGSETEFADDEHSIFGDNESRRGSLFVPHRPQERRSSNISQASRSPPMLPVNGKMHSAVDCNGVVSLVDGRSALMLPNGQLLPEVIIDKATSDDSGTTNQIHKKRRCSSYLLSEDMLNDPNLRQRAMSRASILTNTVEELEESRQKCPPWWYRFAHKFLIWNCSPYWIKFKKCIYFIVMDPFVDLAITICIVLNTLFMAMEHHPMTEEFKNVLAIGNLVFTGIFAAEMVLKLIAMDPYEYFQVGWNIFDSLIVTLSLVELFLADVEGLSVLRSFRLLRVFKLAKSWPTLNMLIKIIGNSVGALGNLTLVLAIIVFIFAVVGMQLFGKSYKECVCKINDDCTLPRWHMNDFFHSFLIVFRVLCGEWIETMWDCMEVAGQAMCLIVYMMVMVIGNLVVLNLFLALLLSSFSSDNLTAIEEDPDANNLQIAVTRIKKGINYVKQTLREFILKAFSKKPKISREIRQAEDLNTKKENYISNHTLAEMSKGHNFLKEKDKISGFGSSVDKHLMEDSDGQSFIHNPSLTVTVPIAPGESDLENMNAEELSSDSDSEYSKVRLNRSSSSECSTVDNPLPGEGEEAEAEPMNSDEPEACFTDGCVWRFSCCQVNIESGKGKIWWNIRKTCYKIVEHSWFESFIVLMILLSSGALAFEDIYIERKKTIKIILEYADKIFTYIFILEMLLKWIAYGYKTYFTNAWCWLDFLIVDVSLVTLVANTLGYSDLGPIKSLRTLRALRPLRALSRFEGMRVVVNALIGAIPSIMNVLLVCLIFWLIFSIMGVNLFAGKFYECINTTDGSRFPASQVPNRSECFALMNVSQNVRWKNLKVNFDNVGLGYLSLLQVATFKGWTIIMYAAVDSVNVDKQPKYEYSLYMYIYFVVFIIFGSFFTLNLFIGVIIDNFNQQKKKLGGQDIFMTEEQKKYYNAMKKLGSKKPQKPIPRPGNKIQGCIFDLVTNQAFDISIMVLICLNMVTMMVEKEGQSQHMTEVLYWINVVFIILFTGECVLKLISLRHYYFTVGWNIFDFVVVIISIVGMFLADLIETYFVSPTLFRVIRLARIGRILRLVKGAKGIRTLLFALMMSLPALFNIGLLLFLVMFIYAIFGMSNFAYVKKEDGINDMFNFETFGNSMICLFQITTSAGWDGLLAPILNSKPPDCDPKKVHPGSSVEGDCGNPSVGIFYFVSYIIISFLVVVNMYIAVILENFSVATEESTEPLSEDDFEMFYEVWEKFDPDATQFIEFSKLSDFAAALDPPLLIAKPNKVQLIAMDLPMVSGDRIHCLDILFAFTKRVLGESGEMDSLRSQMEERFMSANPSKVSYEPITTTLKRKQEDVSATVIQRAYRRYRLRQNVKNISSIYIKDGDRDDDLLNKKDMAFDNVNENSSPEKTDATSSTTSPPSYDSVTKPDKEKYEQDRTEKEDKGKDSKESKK
What is called IC50 is the concentration needed to halve the response being measured. On to `COc1ccc(C(=O)N2CCC3(CC2)c2ccc(C(=O)C4(C)CC4)n2CCN3C)cc1C(F)(F)F` [Compound 282], for which the half-maximal inhibitory concentration (IC50) is not above 2000 nM. With `CN1CCn2c(ccc2S(C)(=O)=O)C12CCN(C(=O)c1ccc(C3CCCCC3)cc1)CC2` [Compound 302] the figure was 2000 to 5000 nM; with `CC(=O)c1ccc2n1CCN(C)C21CCN(C(=O)c2cccc3cccnc23)CC1` [Compound 472], more than 5000 nM; with `Cc1cc(C(=O)N2CCC3(CC2)c2ccc(C(=O)C(F)(F)F)n2CCN3C)ccc1-c1cncnc1` [Compound 191], not above 2000 nM. Regarding `Cc1cc(C(=O)N2CCC3(CC2)c2cc(C(=O)C(F)(F)F)cn2C(C)(C)CN3C)ccc1C(C)(C)O` [Compound 421], the 50% inhibitory concentration (IC50) is more than 5000 nM. Then `CC1CCN(S(=O)(=O)c2ccc(C(=O)N3CCC4(CC3)c3ccc(C(=O)C(F)(F)F)n3CCN4C)cc2)CC1` [Compound 600], with not above 2000 nM; and `CC1(C)Cn2c(C(=O)C(F)(F)F)ccc2C2(CCN(C(=O)c3ccc(C4CCCCC4)cc3)CC2)N1` [Compound 563], with not above 2000 nM; and `Cc1cc(C(=O)N2CCC3(CC2)c2ccc(C(=O)C(F)(F)F)n2CCN3C)ccc1-c1ccccc1` [Compound 55], with not above 2000 nM. With `CC[C@H](C)Oc1ccc(C(=O)N2CCC3(CC2)c2ccc(C(C)=O)n2CCN3C)cc1OC` [Compound 609] the figure was 2000 to 5000 nM; with `CN1CCn2c(C(=O)C(F)(F)F)ccc2C12CCN(C(=O)c1ccc(S(=O)(=O)NC3CC3)cc1)CC2` [Compound 33], not above 2000 nM.

Consider `Cc1cc(C(=O)N2CCC3(CC2)NCCn2c(C(F)(F)F)ccc23)ccc1C(C)(C)O` [Compound 715], for which the IC50 was not above 2000 nM. With `CN1CCn2c(C(F)(F)F)cc(Cl)c2C12CCN(C(=O)c1ccc(COCC(F)(F)F)cc1)CC2` [Compound 75] the figure was not above 2000 nM.

With `Cc1nc(C(=O)N2CCC3(CC2)c2ccc(Cl)n2CCN3C)ccc1OC(C)C` [Compound 648], the IC50 is not above 2000 nM. With `COc1ccc(C(=O)N2CCC3(CC2)c2ccc(C(=O)C(F)(F)F)n2C(C)CN3C)cc1C` (stereo not shown) [Compound 164] the figure was not above 2000 nM; with `COc1cc(C(=O)N2CCC3(CC2)c2ccc(C(F)(F)F)n2CCN3CC(F)(F)F)ccc1OC(C)C` [Compound 59], not above 2000 nM; with `COc1cc(C(=O)N2CCC3(CC2)NCC(C)(C)n2c(C(F)(F)F)ccc23)ccc1OC(C)C` [Compound 405], not above 2000 nM.

Consider `CCCN(CCC)S(=O)(=O)c1ccc(C(=O)N2CCC3(CC2)c2ccc(Cl)n2CCN3C)cc1` [Compound 479], for which the half-inhibitory concentration (IC50) is 2000 to 5000 nM. As to `CC1CN(C)C2(CCN(C(=O)c3ccc(COCCC(F)(F)F)cc3)CC2)c2ccc(C(=O)C(F)(F)F)n21` (stereo not shown) [Compound 8], the concentration for half-maximal inhibition (IC50) was not above 2000 nM.

As for `Cc1cc(C(=O)N2CCC3(CC2)c2ccc(C(F)(F)F)n2CCN3C2CCC2)ccc1OC(C)C` [Compound 106], the IC50 is not above 2000 nM.

Turning to `Cc1cc(-c2ccc(C(=O)N3CCC4(CC3)c3ccc(C(=O)C(F)(F)F)n3CCN4C)cc2C)ccn1` [Compound 169], the half-maximal inhibitory concentration (IC50) is not above 2000 nM. Consider `COc1cc(C(=O)N2CC[C@]3(c4ccc(C(F)(F)F)n4CCN3C)[C@H](F)C2)ccc1OC(C)C` [Compound 105], for which the IC50 was not above 2000 nM. With `CC(=O)c1ccc2n1CCN(C)C21CCN(C(=O)c2ccc(OCCC(C)C)cc2)CC1` [Compound 219] the figure was not above 2000 nM. For the molecule `COc1ccc(C(=O)N2CCC3(CC2)NCC(C)n2c(C(=O)C(F)(F)F)ccc23)cc1C` (stereo not shown) [Compound 595], the 50% inhibitory concentration (IC50) was not above 2000 nM.

On to `CN1CCn2c(C(F)(F)F)ccc2C12CCN(C(=O)c1ccc(S(=O)(=O)N3CCCC3)cc1)CC2` [Compound 123], for which the IC50 was not above 2000 nM. With `C[C@H]1Cn2c(C(=O)C(F)(F)F)ccc2C2(CCN(C(=O)c3ccc(C(C)(C)O)c(F)c3)CC2)N1C` [Compound 411] the figure was not above 2000 nM. Then `Cc1nc(C(=O)N2CCC3(CC2)c2c(Cl)cc(C(F)(F)F)n2CCN3C)ccc1OC(C)C` [Compound 261], with not above 2000 nM; and `CC(=O)c1ccc2n1CCN(C)C21CCN(C(=O)c2ccc(Oc3ccccc3)cc2)CC1` [Compound 78], with 2000 to 5000 nM. With `CC(C)Oc1ccc(C(=O)N2CCC3(CC2)c2ccc(C(F)(F)F)n2C[C@H](C)N3C)c(F)c1` [Compound 152] the figure was not above 2000 nM; with `Cc1cc(C(=O)N2CCC3(CC2)NC(C)(C)Cn2cc(F)c(F)c23)ccc1OC(C)C` [Compound 256], more than 5000 nM; with `CN1CCn2c(C(=O)C(F)(F)F)ccc2C12CCN(C(=O)c1ccc(COc3ccccc3)cc1)CC2` [Compound 214], not above 2000 nM. For the molecule `Cc1cc(C(=O)N2CCC3(CC2)c2ccc(C(F)(F)F)n2CCN3C)ccc1S(=O)(=O)C(C)C` [Compound 2], the half-inhibitory concentration (IC50) is not above 2000 nM. `COc1ccc(C(=O)N2CCC3(CC2)c2ccc(C(=O)c4ccccc4)n2CCN3C)cc1Cl` [Compound 74]: the half-maximal inhibitory concentration (IC50) was 2000 to 5000 nM.

As for `Cc1cc(C(=O)N2CCC3(CC2)c2c(Br)cc(C(F)(F)F)n2CCN3C)ccc1OC(C)C` [Compound 340], the IC50 is not above 2000 nM.

In the case of `CCc1ccc(C(=O)N2CCC3(CC2)c2ccc(C(F)(F)F)n2CCN3C)cc1OC` [Compound 629], the 50% inhibitory concentration (IC50) was not above 2000 nM. As for `CN1CCn2c(ccc2C(F)(F)C(F)(F)F)C12CCN(C(=O)c1ccc(CC(C)(C)O)c(F)c1)CC2` [Compound 226], the concentration for half-maximal inhibition (IC50) is not above 2000 nM. With `CN1CCn2c(C(F)(F)F)ccc2C12CCN(C(=O)c1ccc(S(=O)(=O)C3CC3)cc1)CC2` [Compound 257] the figure was not above 2000 nM. With `CCCCOc1ccc(C(=O)N2CCC3(CC2)c2ccc(C(F)(F)F)n2CCN3C)cc1OC` [Compound 203] the figure was not above 2000 nM. Then `CC(C)Oc1ccc(C(=O)N2CCC3(CC2)NCCn2c(C(F)(F)F)ccc23)cc1Cl` [Compound 135], with not above 2000 nM; and `COc1cc(C(=O)N2CCC3(CC2)c2ccc(C(=O)N4CCC(C(C)C)CC4)n2CCN3C)ccc1OC(C)C` [Compound 622], with 2000 to 5000 nM. Take `COc1ccc(C(=O)N2CCC3(CC2)c2ccc(C(=O)C(F)(F)F)n2C(C)(C)CN3C)cc1C(F)(F)F` [Compound 596]: the IC50 was more than 5000 nM.

Turning to `COc1cc(C(=O)N2CCC3(CC2)c2ccc(C(C)=O)n2CCN3C)ccc1COCC(F)(F)F` [Compound 470], the 50% inhibitory concentration (IC50) was not above 2000 nM. As to `CN1CCn2c(C(F)(F)F)ccc2C12CCN(C(=O)c1cccnc1N1CCCCC1)CC2` [Compound 346], the half-inhibitory concentration (IC50) is not above 2000 nM. Take `Cc1cc(C(=O)N2CCC3(CC2)NCC(C)n2c(C(=O)C(F)(F)F)ccc23)ccc1C(C)(C)O` (stereo not shown) [Compound 235]: the 50% inhibitory concentration (IC50) was not above 2000 nM. With `CN1CCn2c(C(=O)C(F)(F)F)ccc2C12CCN(C(=O)c1ccc(OC(F)(F)F)cc1)CC2` [Compound 185] the figure was not above 2000 nM; with `CCC(=O)c1ccc2n1CCN(C)C21CCN(C(=O)c2ccc(C(C)(C)O)c(C)c2)CC1` [Compound 591], not above 2000 nM. For `CCCCOc1ccc(C(=O)N2CCC3(CC2)c2ccc(Cl)n2CCN3C)cc1OC` [Compound 65], the concentration for half-maximal inhibition (IC50) was not above 2000 nM.

As for `COc1cc(C(=O)N2CCC3(CC2)c2ccc(C(=O)C(C)C)n2CCN3C)ccc1OC(C)C` [Compound 144], the half-maximal inhibitory concentration (IC50) is not above 2000 nM. `CN1CCn2c(C(F)(F)F)ccc2C12CCN(C(=O)c1ccc(OC(C)(C)C)cn1)CC2` [Compound 196]: the half-inhibitory concentration (IC50) was more than 5000 nM. Then `CN1CCn2c(Cl)ccc2C12CCN(C(=O)c1cccc3cccnc13)CC2` [Compound 679], with 2000 to 5000 nM; and `O=C(c1ccnc2ccccc12)N1CCC2(CC1)NCCn1c(C(F)(F)F)ccc12` [Compound 527], with more than 5000 nM. As for `CC(=O)c1ccc2n1C(C)(C)CN(C)C21CCN(C(=O)c2ccc(C3CCCCC3)cc2)CC1` [Compound 361], the IC50 was not above 2000 nM. Consider `CC[C@@H](C)Oc1ccc(C(=O)N2CCC3(CC2)c2c(F)cc(C(F)(F)F)n2CCN3C)cc1OC` [Compound 513], for which the half-inhibitory concentration (IC50) was not above 2000 nM. With `CC(C)Oc1ccc(C(=O)N2CCC3(CC2)c2ccc(C(F)(F)F)n2CCN3C)nc1` [Compound 22] the figure was more than 5000 nM; with `CN1CCn2c(C(=O)C3(C)CC3)ccc2C12CCN(C(=O)c1ccc(S(=O)(=O)NC3CC3)cc1)CC2` [Compound 53], not above 2000 nM. With `CC(=O)c1ccc2n1CCN(C)C21CCN(C(=O)c2ccc(OC(C)C)c(F)c2)CC1` [Compound 734] the figure was more than 5000 nM; with `CCCCOc1ccc(C(=O)N2CCC3(CC2)c2ccc(C(C)=O)n2CCN3C)cc1OC` [Compound 699], not above 2000 nM. Then `COC(=O)N1CCn2c(C(F)(F)F)ccc2C12CCN(C(=O)c1ccc(OC(C)C)c(OC)c1)CC2` [Compound 259], with not above 2000 nM. For the molecule `CCCCCc1ccc(C(=O)N2CCC3(CC2)c2ccc(C(=O)C(F)(F)F)n2CCN3C)cc1` [Compound 62], the half-maximal inhibitory concentration (IC50) is not above 2000 nM. With `COc1cc(C(=O)N2CCC3(NCCn4c(C(F)(F)F)ccc43)C(C)C2)ccc1OC(C)C` (stereo not shown) [Compound 506], the concentration for half-maximal inhibition (IC50) was 2000 to 5000 nM. In the case of `CC1(C)Cn2c(C(=O)C(F)(F)F)ccc2C2(CCN(C(=O)c3ccc(-c4ccccc4)cn3)CC2)N1` [Compound 707], the half-maximal inhibitory concentration (IC50) is not above 2000 nM.

Take `CC(C)S(=O)(=O)c1ccc(C(=O)N2CCC3(CC2)c2c(F)cc(C(F)(F)F)n2CCN3C)cc1` [Compound 363]: the IC50 was not above 2000 nM. Regarding `COc1ccc(C(=O)N2CCC3(CC2)c2ccc(C(=O)C(C)(C)C)n2CCN3C)cc1Cl` [Compound 58], the half-maximal inhibitory concentration (IC50) was not above 2000 nM.

For the molecule `CN1CCn2c(C(F)(F)F)cc(Cl)c2C12CCN(C(=O)c1ccc(CC(C)(C)O)c(F)c1)CC2` [Compound 401], the 50% inhibitory concentration (IC50) is not above 2000 nM. Then `COc1cc(C(=O)N2CCC3(CC2)c2ccc(C(F)(F)F)n2CCN3C(=O)N(C)C)ccc1OC(C)C` [Compound 227], with more than 5000 nM. With `CN1CCn2c(Cl)ccc2C12CCN(C(=O)c1ccc(C3CCCCC3)cc1)CC2` [Compound 626] the figure was not above 2000 nM.

As for `CC(C)Cc1ccc(C(=O)N2CCC3(CC2)c2ccc(C(=O)C(F)(F)F)n2CCN3C)cc1` [Compound 339], the half-maximal inhibitory concentration (IC50) was not above 2000 nM.

In the case of `CC(C)Oc1ccc(C(=O)N2CCC3(CC2)c2ccc(C(=O)C(F)(F)F)n2CCN3C)cc1CO` [Compound 160], the half-inhibitory concentration (IC50) was not above 2000 nM.
